From patent US20080119527A1, “Composition for combating the localized hyperpigmentation of dark skin” (L'OREAL, priority 2006, published 2008)

Tests used:
Type in all cases: cell-based
[1] = system: coculture of normal human keratinocytes and melanocytes; experiment: Melanogenesis modulation: 14C-thiouracil incorporation in keratinocyte/melanocyte coculture
Experimental: Measurement of the melanogenesis-modulating effect of the copolymer of styrene/hydrolysed maleic anhydride (50/50) in sodium salt form, at 40% in water (SMA1000HNa® from the company Cray Valley), in the presence or absence of ascorbic acid, on a coculture of normal human keratinocytes and melanocytes.
The melanogenesis-modulating effect of the copolymer SMA1000HNa® was tested according to the method described in patent FR-A-2 734 825, and also in the article by R. Schmidt, P. Krien and M. Régnier, Anal. Biochem., 235(2), 113-18, 1996.
Briefly, the method comprises the steps consisting in:
coculturing normal human keratinocytes/melanocytes in a medium containing the tested extract and also a labelled melanin precursor, in the present case C14-labelled thiouracil,
lysing the cells containing the melanin with protein-degrading enzymes,
passing the extract obtained through an anion-exchange filter with a pore diameter of less than or equal to 1 μm, and
evaluating the amount of melanin bound by the filter by means of radioactive assay of the thiouracil.
(§1) Specifically, 50 000 normal human keratinocytes and 17 000 normal human melanocytes are mixed together and inoculated per well in 96-well plates (Costar type) and cultured for three days in the differentiation medium. During the following three days, the culture medium is replaced daily with the defined test medium (containing the products to be evaluated, and also 3 μCi/ml of C14-labelled thiouracil).
The following controls are prepared: • control culture: test medium • positive melanogenesis-stimulating control: test medium+1 mM tyrosine; • 3 positive melanogenesis-inhibiting controls: test medium+, respectively, 500 μM of kojic acid; 100 μM of arbutin; […] of lucinol (2-butyl-1,3-benzenediol).
(§2) After one night, the cells are rinsed in phosphate buffer (phosphate-buffered saline, PBS). The proteins are precipitated using 5% trichloracetic acid (TCA) and washed in order to remove the free radioactivity. The proteins are incubated overnight at 37° C. using a proteinase K solution at 20 μl/ml in tris-HCl-Triton EDTA buffer.
(§3) 50 μl of total extract are taken and transferred into a 96-well plate (Wallac) and 150 μl of scintillation liquid (Optiphase “Supermix”) are added. The rest of the extract, i.e. 950 μl, is filtered through a DEAE Filtermat filter. After rinsing, the filter covered with the “Meltilex” solid scintillant is transferred into a counting plate. The radioactivity is counted using a Wallac counter. The results are expressed as a percentage of the control according to the formula: […]
14CP is the mean of the disintegrations per minute (dpm) of 14C-thiouracil on 3 similar wells treated with a product (P);
3HP is the mean of the dpm of the corresponding 3H-leucine;
14CT is the mean of the dpm of 14 C-thiouracil on 3 similar control wells (T);
3HT is the mean of the dpm of the corresponding 3H-leucine.
The ratio of the incorporation of thiouracil to the incorporation of leucine is calculated, to normalize the melanogenesis to the amount of proteins present in the well. This ratio reflects the melanogenesis modulation.

[2] = system: coculture of normal human keratinocytes and melanocytes; experiment: Tritiated leucine incorporation (proliferation and early cytotoxicity indicator) in the coculture
Excerpt: as §1
The total radioactivity incorporated into the proteins is estimated by the incorporation of tritiated leucine, taken as the proliferation indicator and the early cytotoxicity indicator. On the day before the sample is taken, 1 μCi/ml of tritiated leucine is added to the test medium. It is considered that a product is cytotoxic when the content of tritiated leucine falls by at least 30%.
as §2, §3

[3] = system: Normal human melanocyte/keratinocyte cocultures (NHM/NHK); experiment: Photoinduced melanogenesis (UV irradiation) in NHM/NHK coculture, anti-pigmentation protocol
Excerpt: Measurement of the photoinduced melanogenesis-modulating effect of the polymer SMA1000HNa® in the presence or absence of ascorbic acid on a coculture of normal human keratinocytes and melanocytes (anti-pigmentation effect).
(§4) Normal human melanocyte/keratinocyte cocultures (NHM/NHK) undergo 1 irradiation with UV radiation, repeated daily for 4 days, in the presence or absence of the products to be evaluated. The melanin synthesis is quantified as previously by means of the incorporation of ^14C-thiouracil present in the culture medium. In parallel, a protein assay is performed in each well in order to normalize the melanin synthesis and to estimate the toxicity of the product.
More specifically, the melanocytes and keratinocytes are inoculated, respectively, at 80 000 and 250 000 cells per well in 24-well plates in the keratinocyte differentiation medium. The plates are incubated for 3 days at 37° C. before treatment.
To avoid photo-oxidation of one of its components, the culture medium is replaced at the time of irradiation with a solution of the products in PBS. The products are placed in contact with the cells for 15 minutes before irradiation.
The UV irradiation is performed using a sun simulator. The delivered dose is 7 J/cm^2. Irradiation source: Oriel Xénon 1000W simulator+dichroic filter+WG 320/1.5 mm.
The following controls are prepared:
Non-irradiated control (quantification of the constitutive melanogenesis)
Blank irradiation control
2 positive controls of photoinduced melanogenesis inhibition: (100 μM arbutin; 1 μM lucinol).
After irradiation, the PBS is removed and the cells are incubated in a semi-defined culture medium to which are added the products and the ^14C-thiouracil (1 μCi/ml). This treatment is repeated daily for 4 days.
(§5) For each experimental condition, cell lysates are performed by rinsing the cells with a phosphate buffer (PBS). The proteins are precipitated using 5% trichloracetic acid (TCA) and washed in order to remove the free radioactivity. The proteins are incubated over a weekend at 37° C. using a proteinase K solution at 20 μl/ml in tris HCl-Triton-EDTA buffer.
(§6) 5 μl of total extract are taken and transferred into a 96-well plate (Wallac). The proteins are assayed using the Protein Assay Reagent assay kit (Pierce). The amount of proteins per well (P) will be used to normalize the melanogenesis. The rest of the extract is filtered on a DEAE Filtermat filter (Wallac). After rinsing, the filter covered with “Meltilex” solid scintillant (Wallac) is transferred into a Costar counting plate. The radioactivity is counted using a Wallac counter and allows quantification of the melanogenesis (M) by measurement of the ^14C-thiouracil (ccpm) incorporated by the cells.
Normalized melanogenesis (NM)=M/P
Photo-induced melanogenesis (PIM)=NM (irradiated sample)−NM (non-irradiated sample)
Anti-pigmenting effect of the product (%)=[[PIM(irradiated+treated sample)−PIM(irradiated sample)]/PIM(irradiated sample)]×100

[4] = system: Normal human melanocyte/keratinocyte cocultures (NHM/NHK); experiment: Protein assay per well (toxicity estimate) in UV-irradiated NHM/NHK coculture
Experimental: as §4, §5, §6

With N[C@@H](Cc1ccc(O)cc1)C(=O)O [Tyrosine, tyrosine] the “14C ThioU. (%/Control)” value ([1]; 1 mM) was 96%, the “14C ThioU./3H Leu.” value ([1]; 1 mM) was 85% and the “3H Leu. (%/Control)” value ([2]; 1 mM) was “+6%”.
O=C1O[C@H]([C@@H](O)CO)C(O)=C1O [vitamin C, ascorbic acid] was tested, and the IC50 ([1]; Homo sapiens, vitamin C alone, read-out: IC50 (14C ThioU./3H Leu.)) was roughly 230 µM, the “14C ThioU. (%/Control)” value ([1]; vitamin C 0.1 mM) was −14% and the “14C ThioU./3H Leu.” value ([1]; vitamin C 0.1 mM) was −14%. For the same compound, the “14C ThioU. (%/Control)” value ([1]; vitamin C 0.3 mM) was −69%, the “14C ThioU./3H Leu.” value ([1]; vitamin C 0.3 mM) was −62% and the “14C ThioU. (%/Control)” value ([1]; vitamin C 0.4 mM) was −79%. For the same compound, the “14C ThioU./3H Leu.” value ([1]; vitamin C 0.4 mM) was −72%, the “14C ThioU. (%/Control)” value ([1]; vitamin C 0.6 mM) was −76% and the “14C ThioU./3H Leu.” value ([1]; vitamin C 0.6 mM) was −68%. For the same compound, the “3H Leu. (%/Control)” value ([2]; vitamin C 0.1 mM) was 0%, the “3H Leu. (%/Control)” value ([2]; vitamin C 0.3 mM) was −17% and the “3H Leu. (%/Control)” value ([2]; vitamin C 0.4 mM) was −23%. The “3H Leu. (%/Control)” value ([2]; vitamin C 0.6 mM) was −23%, the IC50 ([3]; Homo sapiens, vitamin C alone, read-out: IC50 (anti-pigmenting effect)) was roughly 470 µM and the “Anti-pigmenting effect of the product” value ([3]; vitamin C 0.3 mM) was −40%. For the same compound, the “PIM (%/non-irradiated control)” value ([3]; vitamin C 0.3 mM) was 134%, the “Anti-pigmenting effect of the product” value ([3]; vitamin C 1 mM) was −65% and the “PIM (%/non-irradiated control)” value ([3]; vitamin C 1 mM) was 78%. For the same compound, the “Anti-pigmenting effect of the product” value ([3]; vitamin C 2 mM) was −90%, the “PIM (%/non-irradiated control)” value ([3]; vitamin C 2 mM) was 23% and the “Anti-pigmenting effect of the product” value ([3]; vitamin C 3 mM) was −100%. The “PIM (%/non-irradiated control)” value ([3]; vitamin C 3 mM) was 0%, the “Proteins (%/non-irradiated control)” value ([4]; vitamin C 0.3 mM, UV irradiated) was −12% and the “Proteins (%/non-irradiated control)” value ([4]; vitamin C 1 mM, UV irradiated) was −19%. The “Proteins (%/non-irradiated control)” value ([4]; vitamin C 2 mM, UV irradiated) was −19% and the “Proteins (%/non-irradiated control)” value ([4]; vitamin C 3 mM, UV irradiated) was −22%.
With OC[C@H]1O[C@@H](Oc2ccc(O)cc2)[C@H](O)[C@@H](O)[C@@H]1O [Arbutin, arbutin] the “14C ThioU. (%/Control)” value ([1]; 100 μM) was −49%, the “14C ThioU./3H Leu.” value ([1]; 100 μM) was −44% and the “3H Leu. (%/Control)” value ([2]; 100 μM) was −8%. For the same compound, the “Anti-pigmenting effect of the product” value ([3]; 100 μM + SSR) was −111%, the “PIM (%/non-irradiated control)” value ([3]; 100 μM + SSR) was −24% and the “Proteins (%/non-irradiated control)” value ([4]; 100 μM + SSR) was −15%.
In the case of O=c1cc(CO)occ1O [Kojic acid, kojic acid], the “14C ThioU. (%/Control)” value ([1]; 500 μM) is reported as −56%, the “14C ThioU./3H Leu.” value ([1]; 500 μM) is reported as −52% and the “3H Leu. (%/Control)” value ([2]; 500 μM) is reported as −8%.
